Data from PubChem BioAssay AID1963835 (Molecular Pharmacology Branch, DTP, NCI, 2024).

System: 699152-130-R-J1-PDC complex spheroid viability
Experiment: Anticancer human tumor 699152-130-R-J1-PDC patient-derived pancreatic carcinoma cell line growth inhibition [POLQ]
Settings: for IC50: curve of first compound; for viability, T/C: stronger effect = lower value
Outline: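 PDC + HUVEC + MSC complex spheroids; POLQ inhibitors ± partner drugs; top conc. at/near clinical Cmax, else 10 microM (SN-38 1 microM), half-log dilutions; 37 degrees C, 5% CO2.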
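Further: spheroids exposed to agents for 7 days before viability reading.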
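Wherever viability, T/C is given: percent of DMSO vehicle control viability so 100% = vehicle and 0% = no viable signal.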

## COc1cccc2c1C(=O)c1c(O)c3c(c(O)c1C2=O)CC(O)(C(=O)CO)CC3OC1CC(N)C(O)C(C)O1 (configuration not stated) + Nc1ccc(C#CCN(C(=O)Cc2ncc(C(F)(F)F)cc2C(F)(F)F)c2ccc(F)cc2)nn1
Second compound 0.0316 µM
  IC50: 353 nM
Second compound 0.1 µM
  IC50: 409 nM
Second compound 0.316 µM
  IC50: 377 nM
Second compound 1 µM
  IC50: 205 nM
Second compound 3.16 µM
  IC50: 263 nM
Second compound 10 µM
  IC50: 419 nM
Second compound 0.0316 µM, first compound 0.0316 µM
  viability, T/C: 78%
Second compound 0.0316 µM, first compound 0.1 µM
  viability, T/C: 61.9%
Second compound 0.0316 µM, first compound 0.316 µM
  viability, T/C: 51.9%
Second compound 0.0316 µM, first compound 1 µM
  viability, T/C: 36.6%
Second compound 0.0316 µM, first compound 3.16 µM
  viability, T/C: 2.41%
Second compound 0.0316 µM, first compound 10 µM
  viability, T/C: 9.62%
Second compound 0.1 µM, first compound 0.0316 µM
  viability, T/C: 76.7%
Second compound 0.1 µM, first compound 0.1 µM
  viability, T/C: 69.8%
Second compound 0.1 µM, first compound 0.316 µM
  viability, T/C: 51.9%
Second compound 0.1 µM, first compound 1 µM
  viability, T/C: 37.5%
Second compound 0.1 µM, first compound 3.16 µM
  viability, T/C: 3%
Second compound 0.1 µM, first compound 10 µM
  viability, T/C: 7.86%
Second compound 0.316 µM, first compound 0.0316 µM
  viability, T/C: 78.9%
Second compound 0.316 µM, first compound 0.1 µM
  viability, T/C: 73.3%
Second compound 0.316 µM, first compound 0.316 µM
  viability, T/C: 49.7%
Second compound 0.316 µM, first compound 1 µM
  viability, T/C: 35.7%
Second compound 0.316 µM, first compound 3.16 µM
  viability, T/C: 5.24%
Second compound 0.316 µM, first compound 10 µM
  viability, T/C: 9.53%
Second compound 1 µM, first compound 0.0316 µM
  viability, T/C: 85%
Second compound 1 µM, first compound 0.1 µM
  viability, T/C: 57.9%
Second compound 1 µM, first compound 0.316 µM
  viability, T/C: 46.7%
Second compound 1 µM, first compound 1 µM
  viability, T/C: 28.6%
Second compound 1 µM, first compound 3.16 µM
  viability, T/C: 1.69%
Second compound 1 µM, first compound 10 µM
  viability, T/C: 12.1%
Second compound 3.16 µM, first compound 0.0316 µM
  viability, T/C: 85.2%
Second compound 3.16 µM, first compound 0.1 µM
  viability, T/C: 61.8%
Second compound 3.16 µM, first compound 0.316 µM
  viability, T/C: 51.2%
Second compound 3.16 µM, first compound 1 µM
  viability, T/C: 28.4%
Second compound 3.16 µM, first compound 3.16 µM
  viability, T/C: 2.48%
Second compound 3.16 µM, first compound 10 µM
  viability, T/C: 10.9%
Second compound 10 µM, first compound 0.0316 µM
  viability, T/C: 80.6%
Second compound 10 µM, first compound 0.1 µM
  viability, T/C: 72%
Second compound 10 µM, first compound 0.316 µM
  viability, T/C: 56.1%
Second compound 10 µM, first compound 1 µM
  viability, T/C: 31.9%
Second compound 10 µM, first compound 3.16 µM
  viability, T/C: 3.65%
Second compound 10 µM, first compound 10 µM
  viability, T/C: 10.6%
